{"source": "PubChem BioAssay (NCI)", "experiment_in_all_cases": "growth of human tumour cells (NCI), 48 h", "key": {"[1]": {"tested_on": "SF-295 CNS"}, "[2]": {"tested_on": "RXF 393 renal"}, "[3]": {"tested_on": "SNB-19 CNS"}, "[4]": {"tested_on": "HCT-15 colon"}, "[5]": {"tested_on": "MDA-MB-435"}, "[6]": {"tested_on": "M14 melanoma"}, "[7]": {"tested_on": "K-562 leukemia"}, "[8]": {"tested_on": "MDA-MB-231 breast"}, "[9]": {"tested_on": "RPMI-8226 leukemia"}, "[10]": {"tested_on": "SK-MEL-2 melanoma"}, "[11]": {"tested_on": "MDA-N"}, "[12]": {"tested_on": "OVCAR-4 ovarian"}, "[13]": {"tested_on": "NCI-H522 lung"}, "[14]": {"tested_on": "MALME-3M melanoma"}, "[15]": {"tested_on": "U251 CNS"}, "[16]": {"tested_on": "OVCAR-5 ovarian"}, "[17]": {"tested_on": "KM12 colon"}, "[18]": {"tested_on": "EKVX NSCLC"}, "[19]": {"tested_on": "NCI-H460 lung"}, "[20]": {"tested_on": "A549 NSCLC"}, "[21]": {"tested_on": "IGROV1 ovarian"}, "[22]": {"tested_on": "NCI-H226 lung"}, "[23]": {"tested_on": "UACC-257 melanoma"}, "[24]": {"tested_on": "SF-539 CNS"}, "[25]": {"tested_on": "HT29 colon"}, "[26]": {"tested_on": "NCI-H23 lung"}, "[27]": {"tested_on": "BT-549 breast"}, "[28]": {"tested_on": "LOX IMVI melanoma"}, "[29]": {"tested_on": "A498 renal"}, "[30]": {"tested_on": "MOLT-4 leukemia"}, "[31]": {"tested_on": "SK-MEL-28 melanoma"}, "[32]": {"tested_on": "SF-268 CNS"}, "[33]": {"tested_on": "OVCAR-3 ovarian"}, "[34]": {"tested_on": "OVCAR-8 ovarian"}, "[35]": {"tested_on": "TK-10 renal"}, "[36]": {"tested_on": "DU-145 prostate"}, "[37]": {"tested_on": "SNB-75 CNS"}, "[38]": {"tested_on": "UO-31 renal"}, "[39]": {"tested_on": "CCRF-CEM leukemia"}, "[40]": {"tested_on": "NCI/ADR-RES ovarian"}, "[41]": {"tested_on": "UACC-62 melanoma"}, "[42]": {"tested_on": "HOP-92 NSCLC"}, "[43]": {"tested_on": "ACHN renal"}, "[44]": {"tested_on": "SN12C renal"}, "[45]": {"tested_on": "T-47D breast"}, "[46]": {"tested_on": "HCT-116 colon"}, "[47]": {"tested_on": "HCC-2998 colon"}, "[48]": {"tested_on": "HOP-62 NSCLC"}, "[49]": {"tested_on": "SK-MEL-5 melanoma"}, "[50]": {"tested_on": "SK-OV-3 ovarian"}, "[51]": {"tested_on": "COLO 205 colon"}, "[52]": {"tested_on": "HL-60(TB) leukemia"}, "[53]": {"tested_on": "CAKI-1 renal"}, "[54]": {"tested_on": "SW-620 colon"}, "[55]": {"tested_on": "MCF7 breast"}, "[56]": {"tested_on": "786-0 renal"}}, "note": "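All cell lines were grown in 96-well plates and treated with compound for 48 hours. At the TGI there is no net growth.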", "data": [{"molecule": "COc1cc2c(cc1OCCCCCN1C(=O)c3cccc4cccc(c34)C1=O)N=C[C@@H]1CCCN1C2=O", "values": [{"measurement": "TGI", "setting": "[1]", "value": 4.66, "unit": "µM"}, {"measurement": "TGI", "setting": "[2]", "value": 0.0493, "unit": "µM"}, {"measurement": "TGI", "setting": "[3]", "value": 4.15, "unit": "µM"}, {"measurement": "TGI", "setting": "[4]", "value": 4.06, "unit": "µM"}, {"measurement": "TGI", "setting": "[5]", "value": 0.306, "unit": "µM"}, {"measurement": "TGI", "setting": "[6]", "value": 0.349, "unit": "µM"}, {"measurement": "TGI", "setting": "[7]", "value": "> 100", "unit": "µM"}, {"measurement": "TGI", "setting": "[8]", "value": "> 100", "unit": "µM"}, {"measurement": "TGI", "setting": "[9]", "value": "> 26.2", "unit": "µM"}, {"measurement": "TGI", "setting": "[10]", "value": 0.548, "unit": "µM"}, {"measurement": "TGI", "setting": "[11]", "value": 0.331, "unit": "µM"}, {"measurement": "TGI", "setting": "[12]", "value": "> 100", "unit": "µM"}, {"measurement": "TGI", "setting": "[13]", "value": 0.167, "unit": "µM"}, {"measurement": "TGI", "setting": "[14]", "value": 0.364, "unit": "µM"}, {"measurement": "TGI", "setting": "[15]", "value": "> 100", "unit": "µM"}, {"measurement": "TGI", "setting": "[16]", "value": 15.5, "unit": "µM"}, {"measurement": "TGI", "setting": "[17]", "value": 0.391, "unit": "µM"}, {"measurement": "TGI", "setting": "[18]", "value": 1.85, "unit": "µM"}, {"measurement": "TGI", "setting": "[19]", "value": "> 100", "unit": "µM"}, {"measurement": "TGI", "setting": "[20]", "value": 3.3, "unit": "µM"}, {"measurement": "TGI", "setting": "[21]", "value": 0.535, "unit": "µM"}, {"measurement": "TGI", "setting": "[22]", "value": 0.574, "unit": "µM"}, {"measurement": "TGI", "setting": "[23]", "value": 1.84, "unit": "µM"}, {"measurement": "TGI", "setting": "[24]", "value": 2.55, "unit": "µM"}, {"measurement": "TGI", "setting": "[25]", "value": 1.5, "unit": "µM"}, {"measurement": "TGI", "setting": "[26]", "value": 0.458, "unit": "µM"}, {"measurement": "TGI", "setting": "[27]", "value": 0.855, "unit": "µM"}, {"measurement": "TGI", "setting": "[28]", "value": 0.785, "unit": "µM"}, {"measurement": "TGI", "setting": "[29]", "value": 1.3, "unit": "µM"}, {"measurement": "TGI", "setting": "[30]", "value": "> 100", "unit": "µM"}, {"measurement": "TGI", "setting": "[31]", "value": 0.966, "unit": "µM"}, {"measurement": "TGI", "setting": "[32]", "value": "> 100", "unit": "µM"}, {"measurement": "TGI", "setting": "[33]", "value": 0.524, "unit": "µM"}, {"measurement": "TGI", "setting": "[34]", "value": 1.47, "unit": "µM"}, {"measurement": "TGI", "setting": "[35]", "value": 2.78, "unit": "µM"}, {"measurement": "TGI", "setting": "[36]", "value": 6.9, "unit": "µM"}, {"measurement": "TGI", "setting": "[37]", "value": 1.24, "unit": "µM"}, {"measurement": "TGI", "setting": "[38]", "value": 0.454, "unit": "µM"}, {"measurement": "TGI", "setting": "[39]", "value": 0.0677, "unit": "µM"}, {"measurement": "TGI", "setting": "[40]", "value": 0.89, "unit": "µM"}, {"measurement": "TGI", "setting": "[41]", "value": 0.297, "unit": "µM"}, {"measurement": "TGI", "setting": "[42]", "value": 0.747, "unit": "µM"}, {"measurement": "TGI", "setting": "[43]", "value": 0.827, "unit": "µM"}, {"measurement": "TGI", "setting": "[44]", "value": 9.62, "unit": "µM"}, {"measurement": "TGI", "setting": "[45]", "value": 8.25, "unit": "µM"}, {"measurement": "TGI", "setting": "[46]", "value": 3.13, "unit": "µM"}, {"measurement": "TGI", "setting": "[47]", "value": "> 100", "unit": "µM"}]}, {"molecule": "CCCCN(CC)C(=O)C1=C(C)NC(C)=C(C(=O)N(CC)CCCC)C1", "values": [{"measurement": "TGI", "setting": "[1]", "value": "> 100", "unit": "µM"}, {"measurement": "TGI", "setting": "[2]", "value": "> 100", "unit": "µM"}, {"measurement": "TGI", "setting": "[3]", "value": "> 100", "unit": "µM"}, {"measurement": "TGI", "setting": "[48]", "value": "> 100", "unit": "µM"}, {"measurement": "TGI", "setting": "[4]", "value": "> 100", "unit": "µM"}, {"measurement": "TGI", "setting": "[5]", "value": "> 100", "unit": "µM"}, {"measurement": "TGI", "setting": "[6]", "value": "> 100", "unit": "µM"}, {"measurement": "TGI", "setting": "[8]", "value": "> 100", "unit": "µM"}, {"measurement": "TGI", "setting": "[49]", "value": "> 100", "unit": "µM"}, {"measurement": "TGI", "setting": "[10]", "value": "> 100", "unit": "µM"}, {"measurement": "TGI", "setting": "[11]", "value": "> 100", "unit": "µM"}, {"measurement": "TGI", "setting": "[12]", "value": "> 100", "unit": "µM"}, {"measurement": "TGI", "setting": "[50]", "value": "> 100", "unit": "µM"}, {"measurement": "TGI", "setting": "[15]", "value": "> 100", "unit": "µM"}, {"measurement": "TGI", "setting": "[16]", "value": "> 100", "unit": "µM"}, {"measurement": "TGI", "setting": "[17]", "value": "> 100", "unit": "µM"}, {"measurement": "TGI", "setting": "[18]", "value": "> 100", "unit": "µM"}, {"measurement": "TGI", "setting": "[19]", "value": "> 100", "unit": "µM"}, {"measurement": "TGI", "setting": "[20]", "value": "> 100", "unit": "µM"}, {"measurement": "TGI", "setting": "[21]", "value": "> 100", "unit": "µM"}, {"measurement": "TGI", "setting": "[22]", "value": "> 100", "unit": "µM"}, {"measurement": "TGI", "setting": "[23]", "value": "> 100", "unit": "µM"}, {"measurement": "TGI", "setting": "[24]", "value": "> 100", "unit": "µM"}, {"measurement": "TGI", "setting": "[25]", "value": "> 100", "unit": "µM"}, {"measurement": "TGI", "setting": "[26]", "value": "> 100", "unit": "µM"}, {"measurement": "TGI", "setting": "[27]", "value": "> 100", "unit": "µM"}, {"measurement": "TGI", "setting": "[28]", "value": "> 100", "unit": "µM"}, {"measurement": "TGI", "setting": "[29]", "value": "> 100", "unit": "µM"}, {"measurement": "TGI", "setting": "[30]", "value": "> 100", "unit": "µM"}, {"measurement": "TGI", "setting": "[31]", "value": "> 100", "unit": "µM"}, {"measurement": "TGI", "setting": "[32]", "value": "> 100", "unit": "µM"}, {"measurement": "TGI", "setting": "[33]", "value": "> 100", "unit": "µM"}, {"measurement": "TGI", "setting": "[34]", "value": "> 100", "unit": "µM"}, {"measurement": "TGI", "setting": "[35]", "value": "> 100", "unit": "µM"}, {"measurement": "TGI", "setting": "[36]", "value": "> 100", "unit": "µM"}, {"measurement": "TGI", "setting": "[51]", "value": "> 100", "unit": "µM"}, {"measurement": "TGI", "setting": "[37]", "value": "> 100", "unit": "µM"}, {"measurement": "TGI", "setting": "[52]", "value": "> 100", "unit": "µM"}, {"measurement": "TGI", "setting": "[38]", "value": "> 100", "unit": "µM"}, {"measurement": "TGI", "setting": "[53]", "value": "> 100", "unit": "µM"}, {"measurement": "TGI", "setting": "[40]", "value": "> 100", "unit": "µM"}, {"measurement": "TGI", "setting": "[41]", "value": "> 100", "unit": "µM"}, {"measurement": "TGI", "setting": "[54]", "value": "> 100", "unit": "µM"}, {"measurement": "TGI", "setting": "[42]", "value": "> 100", "unit": "µM"}, {"measurement": "TGI", "setting": "[43]", "value": "> 100", "unit": "µM"}, {"measurement": "TGI", "setting": "[44]", "value": "> 100", "unit": "µM"}, {"measurement": "TGI", "setting": "[55]", "value": "> 100", "unit": "µM"}, {"measurement": "TGI", "setting": "[45]", "value": "> 100", "unit": "µM"}, {"measurement": "TGI", "setting": "[46]", "value": "> 100", "unit": "µM"}, {"measurement": "TGI", "setting": "[56]", "value": "> 100", "unit": "µM"}, {"measurement": "TGI", "setting": "[47]", "value": "> 100", "unit": "µM"}]}]}
